pIC50: −log10 of the molar value.

For one data set, the target named is T1, EIF2AK1 (Homo sapiens, UniProt Q9BQI3).
T1 construct: purchased DiscoverX scanMAX
Put plainly: scanMAX kinase panel. Type of data set: binding. The following applies: read-out: % Control; for remaining binding at 1 µM: 1000 nM. The text has this:
(§1) Supplemental Table S2. scanMAXSM Kinome Assay Results. Complete tabulated data of all 468 kinases from the panel, including
(§2) 403 wild-type and 65 mutant isoforms. […] Cmpd 11 and Cmpd 24

The target of another data set is T2, MAP3K2 (Homo sapiens, UniProt Q9Y2U5).
T2 construct: purchased DiscoverX scanMAX
T2 sequence (Q9Y2U5 1-619): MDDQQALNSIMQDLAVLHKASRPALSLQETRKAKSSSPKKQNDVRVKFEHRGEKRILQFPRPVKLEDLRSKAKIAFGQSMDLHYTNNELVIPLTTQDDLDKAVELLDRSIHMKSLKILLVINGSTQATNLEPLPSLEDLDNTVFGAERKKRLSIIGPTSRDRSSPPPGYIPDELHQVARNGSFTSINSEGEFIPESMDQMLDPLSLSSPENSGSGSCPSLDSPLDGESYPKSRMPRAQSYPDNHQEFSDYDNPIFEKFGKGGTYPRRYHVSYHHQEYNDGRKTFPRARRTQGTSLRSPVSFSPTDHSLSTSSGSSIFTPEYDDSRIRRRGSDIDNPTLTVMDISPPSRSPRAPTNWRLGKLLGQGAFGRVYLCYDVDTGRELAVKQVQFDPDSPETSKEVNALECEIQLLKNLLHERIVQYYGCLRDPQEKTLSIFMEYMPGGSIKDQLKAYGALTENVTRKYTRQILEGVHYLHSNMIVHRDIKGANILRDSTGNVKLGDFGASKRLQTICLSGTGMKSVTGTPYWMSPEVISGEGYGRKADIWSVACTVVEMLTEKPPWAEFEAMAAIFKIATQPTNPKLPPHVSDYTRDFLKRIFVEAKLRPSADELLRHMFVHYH
Description: scanMAX kinase panel. The following applies: read-out: % Control; for remaining binding at 1 µM: 1000 nM. Type of data set: binding.
Source text: as §1, §2

The next data set deals with T3, MKNK2 (Homo sapiens, UniProt Q9HBH9).
T3 construct: purchased DiscoverX scanMAX
T3 sequence (Q9HBH9 whole entry): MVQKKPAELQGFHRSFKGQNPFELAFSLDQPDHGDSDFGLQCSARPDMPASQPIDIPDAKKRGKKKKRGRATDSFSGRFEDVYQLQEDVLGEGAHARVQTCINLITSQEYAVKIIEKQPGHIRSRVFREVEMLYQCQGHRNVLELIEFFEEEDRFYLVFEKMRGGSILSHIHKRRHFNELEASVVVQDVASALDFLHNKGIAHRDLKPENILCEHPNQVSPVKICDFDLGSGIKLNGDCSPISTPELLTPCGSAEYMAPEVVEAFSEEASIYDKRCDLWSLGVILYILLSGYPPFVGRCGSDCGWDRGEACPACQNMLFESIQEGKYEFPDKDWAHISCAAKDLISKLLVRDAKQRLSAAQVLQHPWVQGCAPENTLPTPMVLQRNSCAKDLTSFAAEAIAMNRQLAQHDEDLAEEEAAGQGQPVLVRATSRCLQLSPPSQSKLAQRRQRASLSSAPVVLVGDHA
Description: scanMAX kinase panel. Type of data set: binding. The following applies: read-out: % Control; for remaining binding at 1 µM: 1000 nM.
Source text: as §1, §2

The target in a further data set is T4, GCN2 (Homo sapiens, UniProt Q9P2K8).
T4 construct: purchased Carna 05-153
T4 sequence (Q9P2K8 whole entry): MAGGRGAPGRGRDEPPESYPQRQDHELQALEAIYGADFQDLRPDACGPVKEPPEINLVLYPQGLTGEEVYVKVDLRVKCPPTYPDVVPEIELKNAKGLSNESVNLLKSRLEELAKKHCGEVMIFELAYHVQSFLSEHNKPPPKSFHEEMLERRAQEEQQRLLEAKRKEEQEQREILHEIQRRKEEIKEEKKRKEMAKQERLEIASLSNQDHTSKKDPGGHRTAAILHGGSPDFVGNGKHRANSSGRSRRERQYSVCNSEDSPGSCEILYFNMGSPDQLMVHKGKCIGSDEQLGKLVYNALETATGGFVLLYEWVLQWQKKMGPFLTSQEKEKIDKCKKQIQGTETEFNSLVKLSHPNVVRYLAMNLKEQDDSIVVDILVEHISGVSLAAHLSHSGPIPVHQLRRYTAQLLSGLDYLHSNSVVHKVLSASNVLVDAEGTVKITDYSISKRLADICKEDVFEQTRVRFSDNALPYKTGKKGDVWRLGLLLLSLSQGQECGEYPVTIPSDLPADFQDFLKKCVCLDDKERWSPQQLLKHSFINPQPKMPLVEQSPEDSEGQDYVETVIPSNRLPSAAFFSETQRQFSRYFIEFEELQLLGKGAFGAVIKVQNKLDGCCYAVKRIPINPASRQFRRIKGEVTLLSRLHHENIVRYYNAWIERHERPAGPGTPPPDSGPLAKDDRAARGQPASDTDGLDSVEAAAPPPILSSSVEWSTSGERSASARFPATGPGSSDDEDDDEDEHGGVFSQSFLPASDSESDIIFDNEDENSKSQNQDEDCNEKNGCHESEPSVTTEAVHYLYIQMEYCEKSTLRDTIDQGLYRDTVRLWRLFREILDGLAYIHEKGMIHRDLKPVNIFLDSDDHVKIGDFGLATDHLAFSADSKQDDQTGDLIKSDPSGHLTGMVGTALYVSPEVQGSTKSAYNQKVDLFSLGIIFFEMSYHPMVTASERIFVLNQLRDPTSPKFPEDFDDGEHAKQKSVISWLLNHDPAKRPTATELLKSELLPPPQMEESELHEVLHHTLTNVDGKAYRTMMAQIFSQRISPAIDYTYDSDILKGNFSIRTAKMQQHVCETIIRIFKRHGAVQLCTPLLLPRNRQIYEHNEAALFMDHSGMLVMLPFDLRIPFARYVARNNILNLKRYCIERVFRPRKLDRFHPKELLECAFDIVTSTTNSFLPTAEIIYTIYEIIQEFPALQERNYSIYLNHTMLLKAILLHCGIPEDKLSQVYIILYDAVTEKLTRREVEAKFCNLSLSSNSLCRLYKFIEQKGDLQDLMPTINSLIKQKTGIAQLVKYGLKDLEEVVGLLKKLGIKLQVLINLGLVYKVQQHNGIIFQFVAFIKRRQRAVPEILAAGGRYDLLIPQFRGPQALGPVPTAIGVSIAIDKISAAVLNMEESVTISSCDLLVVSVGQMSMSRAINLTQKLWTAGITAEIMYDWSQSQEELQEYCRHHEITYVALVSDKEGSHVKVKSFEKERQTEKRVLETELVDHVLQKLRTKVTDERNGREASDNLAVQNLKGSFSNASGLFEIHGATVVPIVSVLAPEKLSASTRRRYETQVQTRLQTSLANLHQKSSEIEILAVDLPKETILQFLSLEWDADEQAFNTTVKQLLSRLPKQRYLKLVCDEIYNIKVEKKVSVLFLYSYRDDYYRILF
Description: ISR kinase cell-free biochemical assay (Carna), GCN2. The following applies: ATP 150 µM. How it is done: In brief, 26 was dissolved in DMSO and serially diluted 3-fold to generate concentrations ranging from 10 µM to 0.2 nM in a 384-well plate using a TECAN EVO200 automated liquid handler. 10 nL stock solution was transferred into each well of a 384well assay plate by an Echo550 and an equivalent volume of DMSO was added to the control wells. To each assay well, recombinant protein was suspended in 20 µL reaction buffer (listed below) and incubated at 25 °C for 1.5 h while shaking at 1250 rpm. Following incubation, 10 µL of a FRET dilution buffer including 20 mM EDTA and 4 nM Tb-anti-peIF2a [pSer51] (Invitrogen, Cat# PV4815) was added to each well and incubated at 25 °C for 2 h while shaking at 600 rpm in the dark. Analysis was performed using an Envision Microplate Reader (PerkinElmer).

For another data set, the system named is p-STAT5. Description: FLT3-ITD downstream signaling, p-STAT5 western blot in MV4-11 cells. The data set is classed as cell-based. The conditions noted are these: Homo sapiens, normalized to Crenolanib, read-out: pSTAT5 IC50. The method, then: MV-4-11 and EoL-1 were plated at a density 20,000 cells/well in a 96 well plate. Cells were incubated with DMSO, 1 µM docetaxel, or an 8-pt, 2-fold dose response of 26 in quadruplicate. On day 3 and day 7, cells from DMSO-treated wells were counted and cells from all wells were split back so that the DMSO-treated wells matched the original seeding density. Cells were centrifuged in 96 well filter plates (Sigma) and resuspended in fresh compound-containing media.
On day 10, cells were incubated with alamarBlue™ HS Cell Viability Reagent (Invitogen) (10 µL of alamarBlue in a well of 90 µL media) for 2 hours at 37C/5% CO2. Fluorescence was measured on the EnVision Plate reader (Perkin Elmer) at an ex/em of 560/590 nm. Raw fluorescence values were normalized to positive and negative controls (DMSO, 1 µM docetaxel) to get a % viability. Replicates were averaged and dose responses were plotted on a 4 Parameter Logistic […]
MV-4-11 cells were plated in 6 well plates overnight in reduced serum media (IMDM + 0.5% FBS). The following day, compound or vehicle were added to the plate for a final DMSO concentration of 0.1% and incubated at 37 C for 2 hours.
Cells were washed with 1X PBS (Gibco 10010-023), and lysed in RIPA buffer with added inhibitors. Protein concentration was determined using a BCA assay (Thermo Scientific 23225). […]
In general terms: A western blot detects proteins with antibodies after separation by electrophoresis.

Data set [1] is described as follows: PK of 26 in plasma and pancreas of BALB/c nude mice. The data set is classed as in vivo, mouse. The following applies: 0.3 to 30 mg/kg single oral gavage. How it is done:
For PK analysis of pyrrolopyrimidine analogs in mouse, rat, and dog plasma, the oral formulation was prepared as a solution containing 20% (w/v) Captisol in 25 mM NaH2PO4 buffer (pH 2). Compounds were administered orally by gavage at 10 mg/kg to female CD1 mice. After dosing, plasma samples were collected to characterize the PK profiles at 0.25, 0.5, 1, 2, 4, 8, 12 and 24 h post-dose. The plasma concentration of compound was determined by protein precipitation with acetonitrile and liquid chromatography with mass spectrometric detection (LC-MS/MS). Parameters were estimated using Phoenix (WinNonlin) pharmacokinetic software version 6.1.0 using a non-compartmental approach consistent with the oral route of administration. PK analysis of 26 in plasma and pancreas followed a similar analytical method as above, with minor modifications. Compound 26 was suspended in a vehicle consisting of 0.5% methylcellulose (400 cP) and 0.1% Tween80 in water and administered to BALB/c nude mice by oral gavage at 0.3, 1, 3, 10, 30 mg/kg. Plasma and pancreas were sampled from 5 mice per group following a single oral administration at 1, 4, 8, 12, 24 h post-dose.

T1 sequence (Q9BQI3 whole entry): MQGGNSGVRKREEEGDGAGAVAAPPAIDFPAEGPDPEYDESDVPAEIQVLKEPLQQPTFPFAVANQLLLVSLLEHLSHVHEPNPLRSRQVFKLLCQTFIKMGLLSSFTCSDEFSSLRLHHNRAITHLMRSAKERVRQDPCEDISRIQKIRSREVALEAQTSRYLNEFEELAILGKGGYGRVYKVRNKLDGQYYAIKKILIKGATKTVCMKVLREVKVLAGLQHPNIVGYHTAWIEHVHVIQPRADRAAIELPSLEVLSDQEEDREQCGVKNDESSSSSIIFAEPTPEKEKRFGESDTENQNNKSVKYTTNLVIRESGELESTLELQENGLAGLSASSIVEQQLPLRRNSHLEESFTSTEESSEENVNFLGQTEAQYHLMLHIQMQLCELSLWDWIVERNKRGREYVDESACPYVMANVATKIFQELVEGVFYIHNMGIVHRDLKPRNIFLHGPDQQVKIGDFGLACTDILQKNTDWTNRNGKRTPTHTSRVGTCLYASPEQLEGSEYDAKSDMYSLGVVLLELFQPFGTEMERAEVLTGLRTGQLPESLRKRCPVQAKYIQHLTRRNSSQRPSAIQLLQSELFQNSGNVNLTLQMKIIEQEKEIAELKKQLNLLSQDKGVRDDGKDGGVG

With `Cc1cc(NC(=O)[C@H](O)c2cccc(F)c2)ccc1-c1cn(C)c2ncnc(N)c12` [Compound 11, (R)-N-(4-(4-amino-7-methyl-7H-pyrrolo[2,3-d]pyrimidin-5-yl)-3-methylphenyl)-2-(3-fluorophenyl)-2-hydroxy acetamide], the remaining binding at 1 µM at EIF2AK1 was 49%; on MAP3K2 it was 14%; on MKNK2 it was 1.2%.

`Cc1nc(N)c2c(-c3ccc(NC(=O)[C@H](O)c4cccc(F)c4)cc3C)cn(C)c2n1` [Compound 24]: the remaining binding at 1 µM on EIF2AK1 was 73%; at MAP3K2, 100%; on MKNK2, 58%.

Turning to `Cc1nc(N)c2c(-c3ccc(NC(=O)[C@H](O)c4cccc(C(F)(F)F)c4)cc3C)cn(C)c2n1` [Compound 26], the pIC50 against GCN2 is less than 5.00; in the data set with p-STAT5, 7.19. Besides, the remaining binding at 0.1 µM at EIF2AK1 (100 nM) worked out at 89%; on MAP3K2 (100 nM) it was 100%; on MKNK2 (100 nM), 88%. For the same molecule, the results for the remaining binding at 1 µM on EIF2AK1, on MAP3K2 and on MKNK2 were 78%, 89% and 3.9%, respectively. Moreover, in data set [1], the “exposure in plasma and pancreas” value was “dose-proportionate exposure”.

The term pIC50 denotes −log10 of the IC50, conventionally taken in molar units.

These data come from paper PMC9611727, “Optimization of a Novel Mandelamide-Derived Pyrrolopyrimidine Series of PERK Inhibitors” (Pharmaceutics, 2022).
